Patent publication US11160887B2, “Compositions for use in diagnosing and treating melanoma, including metastatic melanoma and methods related to same” (UNM RAINFOREST INNOVATIONS, priority 2008, dated 2021)
Where two headings read alike, the source gives them in different places. Residues, ends and D or L forms follow the SMILES beside them.

Columns and labels:
[1] = system: B16/F10 pulmonary metastatic melanoma-bearing C57 mice; experiment: Biodistribution in B16/F10 pulmonary metastatic melanoma-bearing C57 mice; assay type: in vivo, mouse
Description: (§1) Biodistribution Studies: All the animal studies were conducted in compliance with Institutional Animal Care and Use Committee approval. B16/F10 pulmonary metastatic melanoma model was established by injecting 0.2 million of cultured B16/F10 cells into each C57 mouse (Harlan, Indianapolis, Ind.) through the tail vein. The B16/F10 pulmonary metastatic melanoma-bearing C57 mice were used for biodistribution studies 16 days after the cell injection. The pharmacokinetics of ^111In-DOTA-GlyGlu-CycMSH was determined in B16/F10 pulmonary metastatic melanoma-bearing and normal C57 mice. HPLC-purified 0.037 MBq of ^111In-DOTA-GlyGlu-CycMSH was injected into each mouse through the tail vein. Groups of 5 mice were sacrificed at 2, 4 and 24 h post-injection, and tumors and organs of interest were harvested, weighed and counted. Blood values were taken as 6.5% of the whole-body weight. Statistical analysis was performed using the Student's t-test for unpaired data.

[2] = as above; assay type: in vivo, mouse; settings: C57, mouse, iv, 0.037 MBq, total radioactivity
Description: as §1

[3] = Urinary metabolites by HPLC in B16/F1 melanoma-bearing C57 mice; assay type: in vivo, mouse; settings: urine, 2 h post-injection
Description: Urinary Metabolites of ^111In-DOTA-CycMSH and ^111In-DOTA-GlyGlu-CycMSH: One hundred microliter of HPLC purified ^111In-DOTA-CycMSH (0.74-1.11 MBq, 0.82-1.12 ng) or ^111In-DOTA-GlyGlu-CycMSH (0.74-1.11 MBq, 0.90-1.35 ng) was injected into each B16/F1 murine melanoma-bearing C57 mouse through the tail vein. At 2 h after dose administration, mice were sacrificed and the urine was collected. The radioactive metabolites in the urine were analyzed by injecting aliquots of urine into HPLC. A 20-minute gradient of 16-26% acetonitrile/20 mM HCl was used for the urine analysis.

[4] = Stability in mouse serum monitored by RP-HPLC; assay type: in vitro ADME; settings: 37° C., 24 h incubation
Description: Complexation of the Peptide with ^111In: ^111In-DOTA-CycMSH and ^111In-DOTA-GlyGlu-CycMSH were prepared using a 0.5 M NH4OAc-buffered solution at pH 5.4. Briefly, 50 μl of ^111InCl3 (18.5-37.0 MBq in 0.05 M HCl), 10 μl of 1 mg/ml DOTA-CycMSH or DOTA-GlyGlu-CycMSH aqueous solution and 400 μl of 0.5 M NH4OAc (pH 5.4) were added into a reaction vial and incubated at 75° C. for 45 min. After the incubation, 20 μl of 0.5% EDTA aqueous solution was added into the reaction vial to scavenge potential unbound ^111In. The radiolabeled complexes were purified to single species by Waters RP-HPLC (Milford, Mass.) on a Grace Vadyc C-18 reverse phase analytical column (Deerfield, Ill.) using a 20-minute gradient of 16-26% acetonitrile in 20 mM HCl aqueous solution with a flowrate of 1 ml/min. Purified peptide samples were purged with N2 gas for 20 minutes to remove the acetonitrile. The pH of final solution was adjusted to 7.4 with 0.1 N NaOH and normal saline for animal studies. The stability of ^111In-DOTA-CycMSH and ^111In-DOTA-GlyGlu-CycMSH was determined by incubation in mouse serum at 37° C. according to the published procedure (20) for various time periods, and monitored for degradation by RP-HPLC.

[5] = Biodistribution in normal C57 mice; assay type: in vivo; settings: C57, mouse, lung, iv, 0.037 MBq, total radioactivity
Description: as §1

[6] = system: B16/F1 murine melanoma-bearing C57 mice; experiment: Biodistribution in B16/F1 murine melanoma-bearing C57 mice; assay type: in vivo, mouse
Description: (§2) Biodistribution Studies: All the animal studies were conducted in compliance with Institutional Animal Care and Use Committee approval. The pharmacokinetics of ^111In-DOTA-CycMSH and ^111In-DOTA-GlyGlu-CycMSH were determined in B16/F1 murine melanoma-bearing C57 female mice (Harlan, Indianapolis, Ind.). C57 mice were inoculated subcutaneously with 1×10^6 B16/F1 murine melanoma cells in the right flank. After 10 days, when the weight of tumors reached approximately 0.2 g, 0.037 MBq of ^111In-DOTA-CycMSH or ^111In-DOTA-GlyGlu-CycMSH was injected into each mouse through the tail vein. Groups of 5 mice were sacrificed at 2, 4 and 24 h post-injection, and tumors and organs of interest were harvested, weighed and counted. Blood values were taken as 6.5% of the whole-body weight. The tumor uptake specificity of ^111In-DOTA-CycMSH and ^111In-DOTA-GlyGlu-CycMSH was determined by blocking tumor uptake with the co-injection of 10 μg (6.07 nmol) of unlabeled NDP-MSH, a linear α-MSH peptide analogue with picomolar affinity for the MC1 receptors present on murine melanoma cells. Statistical analysis was performed using the Student's t-test for unpaired data.

[7] = as above; assay type: in vivo, mouse; settings: female, C57, mouse, iv, 0.037 MBq, total radioactivity; for tissue uptake: all time points (2, 4, 24 h)
Description: as §2

[8] = urine, by 2 h post-injection, read-out: injected radioactivity cleared through the urinary system

What does the source list for `CCCC[C@@H]1NC(=O)[C@@H](NC(=O)[C@H](CCC(=O)O)NC(=O)CNC(=O)CN2CCN(CC(=O)O)CCN(CC(=O)O)CCN(CC(=O)O)CC2)CCCCNC(=O)[C@H](CC(=O)O)NC(=O)[C@H](C(C)C)NC(=O)[C@@H]2CCCN2C(=O)[C@H](CCCNC(=N)N)NC(=O)CNC(=O)[C@H](Cc2c[nH]c3ccccc23)NC(=O)[C@H](CCCNC(=N)N)NC(=O)[C@@H](Cc2ccccc2)NC(=O)[C@H](Cc2c[nH]cn2)NC(=O)[C@H](CCC(=O)O)NC1=O` [^111In-DOTA-GlyGlu-CycMSH, metal not drawn] (HELM PEPTIDE1{[O=C(O)CN1CCN(CC(=O)O)CCN(CC(=O)[*:2])CCN(CC(=O)O)CC1].G.E.K.[Nle].E.H.[dF].R.W.G.R.P.V.D}$PEPTIDE1,PEPTIDE1,4:R3-15:R2$$$V2.0)?
uptake in metastatic melanoma-bearing lung relative to normal lung ([1]; 2 h post-injection): 25.0 times; uptake in metastatic melanoma-bearing lung relative to normal lung ([1]; 4 h post-injection): 36.6 times; uptake in metastatic melanoma-bearing lung relative to normal lung ([1]; 24 h post-injection): 9.7 times; dose excreted ([2]; in vivo, at 24 h post-injection, read-out: injected radioactivity cleared out the body): ~96%; tissue uptake at 2 h ([2]; metastatic melanoma-bearing lung, 2 h post-injection, 16 days post the cell injection): 2 ± 0.74 %ID/g; tissue uptake at 4 h ([2]; metastatic melanoma-bearing lung, 4 h post-injection, 16 days post the cell injection): 1.83 ± 0.12 %ID/g; tissue uptake at 24 h ([2]; metastatic melanoma-bearing lung, 24 h post-injection, 16 days post the cell injection): 0.29 ± 0.06 %ID/g; dose excreted [2, 8]: ~84%; urinary metabolites by RP-HPLC [3]: transformed to two more polar metabolites; stability in mouse serum [4]: stable; tissue uptake at 2 h ([5]; 2 h post-injection): 0.08 ± 0.08 %ID/g; tissue uptake at 4 h ([5]; 4 h post-injection): 0.05 ± 0.05 %ID/g; tissue uptake at 24 h ([5]; 24 h post-injection): 0.03 ± 0.02 %ID/g; tumor uptake with NDP co-injection as % of the tumor uptake without NDP co-injection ([6]; 10 μg (6.07 nmol) non-radiolabeled NDP co-injection, 2 h after dose administration): 2.6%; tumor uptake ([6]; 2 h post-injection, tail vein): 10.40±1.40 % ID/g; kidney uptake higher than 111In-DOTA-ReCCMSH ([6]; 4 h post-injection): 29%; less renal uptake than 111In-DOTA-CycMSH ([6]; 4 h post-injection): 44%; renal uptake as % of that of 111In-DOTA-CMSH ([6]; 4 h post-injection): 34%; tissue uptake ([7]; bone, read-out: bone uptake): < 0.2 %ID/g; kidney uptake at 24 h ([7]; kidney, 24 h after dose administration): 9.06 ± 1.82 %ID/g; tissue uptake ([7]; normal organs except the kidneys, read-out: normal organ uptakes except for the kidneys): < 0.8 %ID/g; tissue uptake at 2 h ([7]; tumor, 2 h post-injection, tail vein): 10.4 ± 1.4 %ID/g; tissue uptake at 4 h ([7]; tumor, 4 h post-injection, tail vein): 7.4 ± 0.43 %ID/g; tissue uptake at 24 h ([7]; tumor, 24 h post-injection, tail vein): 2.37 ± 0.28 %ID/g; dose excreted [7, 8]: ~90%
